Tests used:
hEP1 = molecular target: T1, hEP1 (Homo sapiens, UniProt P34995); experiment: Functional data, human recombinant EP1 receptor stable transfectants; assay type: cell-based
T1 construct: expressed in transfected cells
T1 sequence (P34995 1-402): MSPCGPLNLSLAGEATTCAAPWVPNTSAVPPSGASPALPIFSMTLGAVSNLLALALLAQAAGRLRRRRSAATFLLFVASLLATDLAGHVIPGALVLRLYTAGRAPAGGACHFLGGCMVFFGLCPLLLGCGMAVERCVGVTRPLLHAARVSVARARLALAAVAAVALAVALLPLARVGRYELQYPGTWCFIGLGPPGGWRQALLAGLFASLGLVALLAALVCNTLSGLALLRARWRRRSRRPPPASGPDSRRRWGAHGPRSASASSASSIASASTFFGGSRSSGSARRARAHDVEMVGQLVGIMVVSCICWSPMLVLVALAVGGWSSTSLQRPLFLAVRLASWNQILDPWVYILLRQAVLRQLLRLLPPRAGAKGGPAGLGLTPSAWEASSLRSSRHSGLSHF
Protocol: (§1) Human Recombinant EP1, EP2, EP3, EP4, FP, TP, IP and DP Receptors: Stable Transfectants
(§2) Plasmids encoding the human EP1, EP2, EP3, EP4, FP, TP, IP and DP receptors were prepared by cloning the respective coding sequences into the eukaryotic expression vector pCEP4 (Invitrogen). The pCEP4 vector contains an Epstein Barr virus (EBV) origin of replication, which permits episomal replication in primate cell lines expressing EBV nuclear antigen (EBNA-1). It also contains a hygromycin resistance gene that is used for eukaryotic selection. The cells employed for stable transfection were human embryonic kidney cells (HEK-293) that were transfected with and express the EBNA-1 protein. These HEK-293-EBNA cells (Invitrogen) were grown in medium containing Geneticin (G418) to maintain expression of the EBNA-1 protein. HEK-293 cells were grown in DMEM with 10% fetal bovine serum (FBS), 250 μg ml^−1 G418 (Life Technologies) and 200 μg ml^−1 gentamicin or penicillin/streptomycin.
(§3) For transfection, the cells were grown to 50-60% confluency on 10 cm plates. The plasmid pCEP4 incorporating cDNA inserts for the respective human prostanoid receptor (20 μg) was added to 500 μl of 250 mM CaCl2. HEPES buffered saline×2 (2×HBS, 280 mM NaCl, 20 mM HEPES acid, 1.5 mM Na2 HPO4, pH 7.05-7.12) was then added dropwise to a total of 500 μl, with continuous vortexing at room temperature. After 30 min, 9 ml DMEM were added to the mixture. The DNA/DMEM/calcium phosphate mixture was then added to the cells, which had been previously rinsed with 10 ml PBS. The cells were then incubated for 5 hr at 37° C. in humidified 95% air/5% CO2. The calcium phosphate solution was then removed and the cells were treated with 10% glycerol in DMEM for 2 min. The glycerol solution was then replaced by DMEM with 10% FBS. The cells were incubated overnight and the medium was replaced by DMEM/10% FBS containing 250 μg ml^−1 G418 and penicillin/streptomycin. The following day hygromycin B was added to a final concentration of 200 μg ml^−1.
(§4) Ten days after transfection, hygromycin B resistant clones were individually selected and transferred to a separate well on a 24 well plate. At confluence each clone was transferred to one well of a 6 well plate, and then expanded in a 10 cm dish. Cells were maintained under continuous hygromycin selection until use.

hEP3A = molecular target: T2, hEP3A (Homo sapiens, UniProt P43115); experiment: Functional data, human recombinant EP3A receptor stable transfectants; assay type: cell-based
T2 construct: expressed in transfected cells
T2 sequence (P43115 1-390): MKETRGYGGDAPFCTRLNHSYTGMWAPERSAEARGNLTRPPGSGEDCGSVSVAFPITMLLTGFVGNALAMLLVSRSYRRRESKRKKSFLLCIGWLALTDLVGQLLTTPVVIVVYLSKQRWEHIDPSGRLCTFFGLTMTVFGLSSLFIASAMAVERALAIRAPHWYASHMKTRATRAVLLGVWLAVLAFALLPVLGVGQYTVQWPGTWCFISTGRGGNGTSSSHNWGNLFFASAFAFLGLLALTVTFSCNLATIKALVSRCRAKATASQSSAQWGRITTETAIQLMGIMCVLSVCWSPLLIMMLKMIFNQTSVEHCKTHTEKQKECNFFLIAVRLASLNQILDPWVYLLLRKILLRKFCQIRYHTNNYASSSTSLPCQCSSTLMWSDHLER
Protocol: as §1
as §2, with “The cells employed for stable transfection were human embryonic kidney cells (HEK-293) that were transfected with and express the EBNA-1 protein. These HEK-293-EBNA cells (Invitrogen) were grown in medium containing Geneticin (G418) to maintain expression of the EBNA-1 protein.” left out
as §3, with “HEPES buffered saline×2 (2×HBS, 280 mM NaCl, 20 mM HEPES acid, 1.5 mM Na2 HPO4, pH 7.05-7.12) was then added dropwise to a total of 500 μl, with continuous vortexing at room temperature.” left out
as §4

hEP4 [1] = molecular target: T3, hEP4 (Homo sapiens, UniProt P35408); experiment: Functional data, human recombinant EP4 receptor stable transfectants; assay type: cell-based
T3 construct: expressed in transfected cells
T3 sequence (P35408 whole entry): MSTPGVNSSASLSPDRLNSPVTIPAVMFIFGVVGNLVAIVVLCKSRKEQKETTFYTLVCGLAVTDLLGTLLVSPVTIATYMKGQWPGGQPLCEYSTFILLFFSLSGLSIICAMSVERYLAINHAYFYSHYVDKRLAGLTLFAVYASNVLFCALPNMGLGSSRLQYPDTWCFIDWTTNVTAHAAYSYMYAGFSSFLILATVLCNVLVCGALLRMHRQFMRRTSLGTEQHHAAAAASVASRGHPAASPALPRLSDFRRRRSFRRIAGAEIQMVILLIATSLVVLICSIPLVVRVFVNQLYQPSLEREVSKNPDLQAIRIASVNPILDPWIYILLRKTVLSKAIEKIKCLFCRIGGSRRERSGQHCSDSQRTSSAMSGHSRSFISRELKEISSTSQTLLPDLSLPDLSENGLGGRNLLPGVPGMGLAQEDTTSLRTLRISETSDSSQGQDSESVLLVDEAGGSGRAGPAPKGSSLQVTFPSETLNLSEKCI
Protocol: as §1
as §2, with “The cells employed for stable transfection were human embryonic kidney cells (HEK-293) that were transfected with and express the EBNA-1 protein. These HEK-293-EBNA cells (Invitrogen) were grown in medium containing Geneticin (G418) to maintain expression of the EBNA-1 protein.” left out
as §3, with “HEPES buffered saline×2 (2×HBS, 280 mM NaCl, 20 mM HEPES acid, 1.5 mM Na2 HPO4, pH 7.05-7.12) was then added dropwise to a total of 500 μl, with continuous vortexing at room temperature.” left out
as §4

hEP2 = molecular target: T4, hEP2 (Homo sapiens, UniProt P43116); experiment: Radioligand binding, hEP2; conditions: [3H]PGE2 competition
T4 construct: expressed in transfected cells
T4 sequence (P43116 whole entry): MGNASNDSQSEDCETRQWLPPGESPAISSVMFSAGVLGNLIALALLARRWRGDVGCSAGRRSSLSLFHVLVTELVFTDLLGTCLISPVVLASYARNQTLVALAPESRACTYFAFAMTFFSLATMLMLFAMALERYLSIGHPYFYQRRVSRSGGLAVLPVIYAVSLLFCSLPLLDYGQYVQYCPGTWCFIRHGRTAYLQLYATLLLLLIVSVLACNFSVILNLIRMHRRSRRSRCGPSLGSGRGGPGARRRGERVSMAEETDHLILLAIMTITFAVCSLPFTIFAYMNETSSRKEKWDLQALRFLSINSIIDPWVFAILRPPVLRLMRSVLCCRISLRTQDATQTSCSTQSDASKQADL
Protocol: as §1
as §2, with “HEK-293 cells were grown in DMEM with 10% fetal bovine serum (FBS), 250 μg ml^−1 G418 (Life Technologies) and 200 μg ml^−1 gentamicin or penicillin/streptomycin.” left out
Radioligand binding studies on plasma membrane fractions prepared for cells stably transfected with the cat or human receptor were performed as follows. […] The pellet was then resuspended in TME buffer to provide a final protein concentration of 1 mg/ml, as determined by Bio-Rad assay. […]
The binding of [^3H](N) PGE2 (specific activity 165 Ci/mmol) was determined in duplicate and in at least 3 separate experiments. […] Competition studies were performed using a final concentration of 2.5 or 5 nM [^3H](N) PGE2 and non-specific binding was determined with 10^−5 M unlabelled PGE2.

hEP4 [2] = molecular target: T3, hEP4; experiment: Radioligand binding, hEP4; conditions: [3H]PGE2 competition
Protocol: as §1
as §2, with “The cells employed for stable transfection were human embryonic kidney cells (HEK-293) that were transfected with and express the EBNA-1 protein. These HEK-293-EBNA cells (Invitrogen) were grown in medium containing Geneticin (G418) to maintain expression of the EBNA-1 protein.” left out
as §3, with “HEPES buffered saline×2 (2×HBS, 280 mM NaCl, 20 mM HEPES acid, 1.5 mM Na2 HPO4, pH 7.05-7.12) was then added dropwise to a total of 500 μl, with continuous vortexing at room temperature.” left out
as §4
Radioligand binding studies on plasma membrane fractions prepared for cells stably transfected with the cat or human receptor were performed as follows. Cells washed with TME buffer were scraped from the bottom of the flasks and homogenized for 30 sec using a Brinkman PT 10/35 polytron. TME buffer was added as necessary to achieve a 40 ml volume in the centrifuge tubes. TME is comprised of 50 mM TRIS base, 10 mM MgCl2, 1 mM EDTA; pH 7.4 is achieved by adding 1 N HCl. The cell homogenate was centrifuged at 19,000 rpm for 20-25 min at 4° C. using a Beckman Ti-60 or Ti-70 rotor. The pellet was then resuspended in TME buffer to provide a final protein concentration of 1 mg/ml, as determined by Bio-Rad assay. Radioligand binding assays were performed in a 100 μl or 200 μl volume.
The binding of [^3H](N) PGE2 (specific activity 165 Ci/mmol) was determined in duplicate and in at least 3 separate experiments. Incubations were for 60 min at 25° C. and were terminated by the addition of 4 ml of ice-cold 50 mM TRIS-HCl followed by rapid filtration through Whatman GF/B filters and three additional 4 ml washes in a cell harvester (Brandel). Competition studies were performed using a final concentration of 2.5 or 5 nM [^3H](N) PGE2 and non-specific binding was determined with 10^−5 M unlabelled PGE2.

hTP = molecular target: T5, hTP (Homo sapiens, UniProt P21731); experiment: Functional data, human recombinant TP receptor stable transfectants; assay type: cell-based
T5 construct: expressed in transfected cells
T5 sequence (P21731 1-343): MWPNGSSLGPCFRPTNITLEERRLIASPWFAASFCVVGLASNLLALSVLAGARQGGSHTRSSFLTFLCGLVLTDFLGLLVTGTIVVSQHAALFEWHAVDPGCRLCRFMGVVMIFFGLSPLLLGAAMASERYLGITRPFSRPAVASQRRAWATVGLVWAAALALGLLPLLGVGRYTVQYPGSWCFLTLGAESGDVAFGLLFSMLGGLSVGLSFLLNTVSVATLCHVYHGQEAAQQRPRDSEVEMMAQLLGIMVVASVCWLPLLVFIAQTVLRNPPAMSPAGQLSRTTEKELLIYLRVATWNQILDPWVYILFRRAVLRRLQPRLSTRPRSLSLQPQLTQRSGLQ
Protocol: as §1, §2, §3, §4

hEP3D = molecular target: T6, hEP3D (Homo sapiens, UniProt P43115); experiment: Radioligand binding, hEP3D; conditions: [3H]PGE2 competition
T6 construct: expressed in transfected cells; host or cells: COS-7, transient transfection, plasma membrane fraction
T6 sequence (P43115 1-374 isoform P43115-4): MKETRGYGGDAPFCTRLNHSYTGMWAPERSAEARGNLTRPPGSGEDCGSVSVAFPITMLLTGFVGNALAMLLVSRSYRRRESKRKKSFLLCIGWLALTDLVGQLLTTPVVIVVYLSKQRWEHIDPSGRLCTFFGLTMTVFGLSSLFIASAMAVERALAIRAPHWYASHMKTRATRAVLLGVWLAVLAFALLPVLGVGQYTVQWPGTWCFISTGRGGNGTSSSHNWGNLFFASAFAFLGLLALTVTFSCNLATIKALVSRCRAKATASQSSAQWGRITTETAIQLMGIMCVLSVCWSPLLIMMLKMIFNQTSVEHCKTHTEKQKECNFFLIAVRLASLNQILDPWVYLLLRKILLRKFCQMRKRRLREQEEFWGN
Protocol: For radioligand binding on the transient transfectants, plasma membrane fraction preparation was as follows. COS-7 cells were washed with TME buffer, scraped from the bottom of the flasks, and homogenized for 30 sec using a Brinkman PT 10/35 polytron. TME buffer was added to achieve a final 40 ml volume in the centrifuge tubes. The composition of TME is […]; 10N HCl is added to achieve a pH of 7.4.
The cell homogenate was centrifuged at 19000 rpm for 20 min at 4° C. using a Beckman Ti-60 rotor. The resultant pellet was resuspended in TME buffer to give a final 1 mg/ml protein concentration, as determined by Biorad assay. Radioligand binding assays were performed in a 200 μl volume.
The binding of [^3H] PGE2 (specific activity 165 […]) at EP3D, receptors and [^3H]-SQ29548 (specific activity 41.5 Ci mmol^−1) at TP receptors were determined in duplicate in at least three separate experiments. Radiolabeled PGE2 was purchased from Amersham, radiolabeled SQ29548 was purchased from New England Nuclear. […] Competition studies were performed using a final concentration of 2.5 or 5 nM [^3H]-PGE2, or 10 nM [^3H]-SQ 29548 and non-specific binding determined with 10 μM of the respective unlabeled prostanoid. […]

hIP = molecular target: T7, hIP (Homo sapiens, UniProt P43119); experiment: Functional data, human recombinant IP receptor stable transfectants; assay type: cell-based
T7 construct: expressed in transfected cells
T7 sequence (P43119 whole entry): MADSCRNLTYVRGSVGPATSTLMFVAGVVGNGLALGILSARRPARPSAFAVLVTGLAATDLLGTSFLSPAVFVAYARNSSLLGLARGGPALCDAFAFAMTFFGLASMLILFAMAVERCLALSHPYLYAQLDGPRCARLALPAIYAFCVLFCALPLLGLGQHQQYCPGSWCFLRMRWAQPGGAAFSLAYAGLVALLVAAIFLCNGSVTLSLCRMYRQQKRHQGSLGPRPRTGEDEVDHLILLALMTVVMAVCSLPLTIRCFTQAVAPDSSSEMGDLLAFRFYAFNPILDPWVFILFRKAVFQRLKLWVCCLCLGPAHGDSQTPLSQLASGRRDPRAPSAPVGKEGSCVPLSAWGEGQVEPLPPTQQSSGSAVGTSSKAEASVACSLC
Protocol: as §1, §2
For transfection, the cells were grown to 50-60% confluency on 10 cm plates. The plasmid pCEP4 incorporating cDNA inserts for the respective human prostanoid receptor (20 μg) was added to 500 μl of 250 mM CaCl2. HEPES buffered saline×2 (2×HBS, 280 mM NaCl, 20 mM HEPES acid, 1.5 mM Na2 HPO4, pH 7.05-7.12) was then added dropwise to a total of 500 μl, with continuous vortexing at room temperature. […]

O=C(O)CCCCCCN1C(=O)CC[C@@H]1/C=C/C(=O)Cc1cccc(C(F)(F)F)c1 [Example 7a, 7-[2S-[3-Oxo-4-(trifluormethylphenyl)-but-1-enyl]-5-oxo-pyrrolidin-1-yl]-heptanoic acid]
EC50 (hEP1): > 10000 nM
hEP3A functional EC50 (hEP3A): hit
EC50 (hEP4 [1]): 86 nM
IC50 (hEP2): > 10000 nM
IC50 (hEP4 [2]): 500 nM

O=C(O)CCCCCCN1C(=O)CC[C@@H]1/C=C/C(=O)Cc1ccccc1 [Example 11a, 7-[2S-[3-Oxo-4-(phenyl)-but-1-enyl]-5-oxo-pyrrolidin-1-yl]-heptanoic acid]
hEP3A functional EC50 (hEP3A): hit
EC50 (hEP4 [1]): 29 nM
EC50 (hTP): > 10000 nM
IC50 (hEP3D): 300 nM

O=C(O)CCCCCCN1C(=O)CC[C@@H]1/C=C/C(O)Cc1cccc(Cl)c1 (stereo partly drawn) [Example 1a, 7-[2S-[3R-Hydroxy-4-(chloro-phenyl)-but-1-enyl]-5-oxo-pyrrolidin-1-yl]-heptanoic acid]
hEP1 functional EC50 (hEP1): hit
EC50 (hEP3A): 324 nM
EC50 (hEP4 [1]): 0.02 nM
EC50 (hTP): > 10000 nM
IC50 (hEP2): > 10000 nM
IC50 (hEP4 [2]): 0.4 nM

CCOC(=O)CCCCCCN1C(=O)CC[C@@H]1/C=C/C(O)Cc1cccc(C(F)(F)F)c1 (stereo partly drawn) [Example 6a, 7-[2S-[3R-Hydroxy-4-(3-trifluoromethyl-phenyl)-but-1-enyl]-5-oxo-pyrrolidin-1-yl]-heptanoic acid, ethyl ester]
EC50 (hEP3A): > 10000 nM
EC50 (hEP4 [1]): 26 nM
EC50 (hIP): > 10000 nM
IC50 (hEP4 [2]): 200 nM

Source: patent US6906097B2, “8-azaprostaglandin analogs as agents for lowering intraocular pressure” (Allergan, Inc., priority 2002, dated 2005)
